Measurements taken from the supplement of paper PMC10307832.

Assays:
Test in all cases: relative viability (nuclei count vs DMSO), 5 days (fraction); higher = more cells survive
[1] = compound: COc1cc([C@@H]2c3cc4c(cc3[C@@H](O[C@@H]3O[C@@H]5CO[C@@H](C)O[C@H]5[C@H](O)[C@H]3O)[C@H]3COC(=O)[C@H]23)OCO4)cc(OC)c1O [Etoposide] + COc1cccc2cc(-c3nc([C@H]4CC[C@H](C(=O)O)CC4)n4ncnc(N)c34)[nH]c12 [OSI-027] (partner 0.5 µM)
Procedure, shortened: (§1)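 Relative viability equals treated-well nuclei counts divided by vehicle-well nuclei counts. Counts came from 4× images of lung cancer cell lines grown in 1536-well plates for 5 days after pin-tool dosing on the day after seeding. Dosing used one drug alone or a fixed anchor-drug dose plus five library-drug doses (not always all listed) in √10 steps, and values are medians of duplicate plates.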

[2] = compound: COc1cc([C@@H]2c3cc4c(cc3[C@@H](O[C@@H]3O[C@@H]5CO[C@@H](C)O[C@H]5[C@H](O)[C@H]3O)[C@H]3COC(=O)[C@H]23)OCO4)cc(OC)c1O [Etoposide] + O=C(CCCCCCC(=O)Nc1ccccc1)NO [Vorinostat] (partner 1 µM)
Procedure, shortened: as §1

[3] = compound: COc1cc([C@@H]2c3cc4c(cc3[C@@H](O[C@@H]3O[C@@H]5CO[C@@H](C)O[C@H]5[C@H](O)[C@H]3O)[C@H]3COC(=O)[C@H]23)OCO4)cc(OC)c1O [Etoposide] + C[C@]1(O)C[C@@H](c2nc(-c3ccc4ccc(-c5ccccc5)nc4c3)c3c(N)nccn32)C1 [Linsitinib] (partner 1 µM)
Procedure, shortened: as §1

[4] = compound: COc1cc([C@@H]2c3cc4c(cc3[C@@H](O[C@@H]3O[C@@H]5CO[C@@H](C)O[C@H]5[C@H](O)[C@H]3O)[C@H]3COC(=O)[C@H]23)OCO4)cc(OC)c1O [Etoposide] + Cc1nc(NC(=O)N2CCC[C@H]2C(N)=O)sc1-c1ccnc(C(C)(C)C(F)(F)F)c1 [Alpelisib] (partner 2 µM)
Procedure, shortened: as §1

Cell Line | relative viability ([1]; first compound 0.01 µM) | relative viability ([1]; first compound 0.03162 µM) | relative viability ([1]; first compound 0.1 µM) | relative viability ([1]; first compound 0.3162 µM) | relative viability ([1]; first compound 1 µM) | relative viability ([2]; first compound 0.01 µM) | relative viability ([2]; first compound 0.03162 µM) | relative viability ([2]; first compound 0.1 µM) | relative viability ([2]; first compound 0.3162 µM) | relative viability ([2]; first compound 1 µM) | relative viability ([3]; first compound 0.01 µM) | relative viability ([3]; first compound 0.03162 µM) | relative viability ([3]; first compound 0.1 µM) | relative viability ([3]; first compound 0.3162 µM) | relative viability ([3]; first compound 1 µM) | relative viability ([4]; first compound 0.01 µM) | relative viability ([4]; first compound 0.03162 µM) | relative viability ([4]; first compound 0.1 µM) | relative viability ([4]; first compound 0.3162 µM) | relative viability ([4]; first compound 1 µM)
NCI-H522 | 0.647 | 0.77 | 0.657 | 0.709 | 0.71 | 0.934 | 0.981 | 0.774 | 0.841 | 0.834 |  |  |  |  |  |  |  |  |  | 
HCC-15 | 0.785 | 0.718 | 0.563 | 0.291 | 0.144 | 0.766 | 0.894 | 0.779 | 0.275 | 0.178 | 0.892 | 0.903 | 0.755 | 0.396 | 0.16 | 0.894 | 0.898 | 0.721 | 0.333 | 0.122
A-427 | 0.472 | 0.486 | 0.43 | 0.396 | 0.212 | 0.864 | 0.864 | 0.761 | 0.625 | 0.309 | 1.17 | 1.16 | 0.815 | 0.841 | 0.243 | 1.07 | 1.14 | 0.713 | 0.755 | 0.229
NCI-H23 | 0.754 | 0.609 | 0.406 | 0.542 | 0.207 | 0.633 | 0.604 | 0.316 | 0.262 | 0.145 | 0.504 | 0.645 | 0.364 | 0.409 | 0.191 | 0.578 | 0.654 | 0.358 | 0.364 | 0.236
NCI-H1734 | 0.636 | 0.617 | 0.406 | 0.497 | 0.302 | 0.701 | 0.929 | 0.514 | 0.458 | 0.219 | 0.746 | 0.932 | 0.725 | 0.688 | 0.509 | 0.698 | 0.822 | 0.509 | 0.517 | 0.381
NCI-H2087 | 0.514 | 0.59 | 0.364 | 0.386 | 0.173 | 1.08 | 0.975 | 0.641 | 0.524 | 0.23 |  | 1.06 | 0.889 | 0.588 | 0.303 |  | 0.985 | 1.01 | 0.512 | 0.255
PC-3 [JPC-3] | 0.657 | 0.731 | 0.636 | 0.736 | 0.689 | 0.796 | 1.09 | 0.69 | 0.694 | 0.518 | 0.965 | 0.991 | 0.952 | 0.933 | 0.84 | 0.946 | 1.05 | 0.833 | 0.984 | 0.777
NCI-H1915 | 0.598 | 0.637 | 0.492 | 0.572 | 0.504 | 0.511 | 0.616 | 0.426 | 0.477 | 0.418 | 1.1 | 1.16 | 1.06 | 0.994 | 0.851 | 0.999 | 1.17 | 0.967 | 0.99 | 0.631
